From the NIST ThermoML archive (doi:10.1021/je100610v)

Assay: xn = mol fraction of the nth substance listed
Details: 101 kPa, Liquid; for speed of sound: Pulse-echo method

ClCCCCCCCl [1,6-dichlorohexane] + CCCCCCC
Details	mass density [kg/m3]	speed of sound [m/s]
292.49 K, x1 = 0.3004	–	1199.1
292.56 K, x1 = 0.6998	–	1276.9
292.79 K, x1 = 0.4999	–	1235
292.8 K, x1 = 0.8001	–	1297
292.8 K, x1 = 0.8957	–	1316.3
292.81 K, x1 = 0.1999	–	1181.6
292.81 K, x1 = 0.6004	–	1255
292.91 K, x1 = 0.4	–	1215.3
292.92 K, x1 = 0.1014	–	1167.6
293.01 K, x1 = 1	–	1337.8
293.15 K, x1 = 0.0998	722.22	–
293.15 K, x1 = 0.1999	760.97	–
293.15 K, x1 = 0.2998	799.74	–
293.15 K, x1 = 0.4001	838.66	–
293.15 K, x1 = 0.5001	877.38	–
293.15 K, x1 = 0.6002	916.12	–
293.15 K, x1 = 0.7	954.46	–
293.15 K, x1 = 0.8002	992.78	–
293.15 K, x1 = 0.9001	1030.7	–
293.15 K, x1 = 1	1068.33	–
298.15 K, x1 = 0.0998	717.96	–
298.15 K, x1 = 0.1999	756.72	–
298.15 K, x1 = 0.2998	795.42	–
298.15 K, x1 = 0.4001	834.33	–
298.15 K, x1 = 0.5001	873.04	–
298.15 K, x1 = 0.6002	911.75	–
298.15 K, x1 = 0.7	950.12	–
298.15 K, x1 = 0.8002	988.4	–
298.15 K, x1 = 0.9001	1026.11	–
298.15 K, x1 = 1	1063.61	–
298.16 K, x1 = 0.6998	–	1256.2
298.16 K, x1 = 0.8957	–	1297.1
298.17 K, x1 = 0.3004	–	1176.1
298.17 K, x1 = 0.4999	–	1214.5
298.18 K, x1 = 1	–	1319.7
298.2 K, x1 = 0.4	–	1195
298.2 K, x1 = 0.8001	–	1277.5
298.21 K, x1 = 0.1014	–	1145.5
298.21 K, x1 = 0.1999	–	1159.4
298.21 K, x1 = 0.6004	–	1235.2
303.14 K, x1 = 0.4999	–	1195.5
303.14 K, x1 = 0.6998	–	1237.9
303.14 K, x1 = 0.8957	–	1279.5
303.15 K, x1 = 0.0998	713.61	–
303.15 K, x1 = 0.1999	752.3	–
303.15 K, x1 = 0.2998	791	–
303.15 K, x1 = 0.3004	–	1156.1
303.15 K, x1 = 0.4001	830	–
303.15 K, x1 = 0.5001	868.59	–
303.15 K, x1 = 0.6002	907.23	–
303.15 K, x1 = 0.7	945.63	–
303.15 K, x1 = 0.8002	983.71	–
303.15 K, x1 = 0.9001	1021.49	–
303.15 K, x1 = 1	1058.87	1302.4
303.19 K, x1 = 0.4	–	1175.5
303.19 K, x1 = 0.8001	–	1259.6
303.2 K, x1 = 0.1014	–	1124.7
303.2 K, x1 = 0.1999	–	1138.9
303.2 K, x1 = 0.6004	–	1216.8
308.12 K, x1 = 0.6998	–	1219.8
308.12 K, x1 = 0.8957	–	1261.9
308.13 K, x1 = 0.3004	–	1136.2
308.13 K, x1 = 0.4999	–	1176.5
308.14 K, x1 = 1	–	1285
308.15 K, x1 = 0.0998	709.34	–
308.15 K, x1 = 0.1999	748.07	–
308.15 K, x1 = 0.2998	786.58	–
308.15 K, x1 = 0.4001	825.61	–
308.15 K, x1 = 0.5001	864.37	–
308.15 K, x1 = 0.6002	902.95	–
308.15 K, x1 = 0.7	941.1	–
308.15 K, x1 = 0.8002	979.09	–
308.15 K, x1 = 0.9001	1016.82	–
308.15 K, x1 = 1	1054.14	–
308.17 K, x1 = 0.4	–	1156.1
308.18 K, x1 = 0.1014	–	1104
308.18 K, x1 = 0.6004	–	1198.3
308.18 K, x1 = 0.8001	–	1241.7
308.19 K, x1 = 0.1999	–	1118.6
313.15 K, x1 = 0.0998	704.96	–
313.15 K, x1 = 0.1999	743.68	–
313.15 K, x1 = 0.2998	782.17	–
313.15 K, x1 = 0.4001	821.26	–
313.15 K, x1 = 0.5001	859.93	–
313.15 K, x1 = 0.6002	898.61	–
313.15 K, x1 = 0.7	936.7	–
313.15 K, x1 = 0.8002	974.58	–
313.15 K, x1 = 0.9001	1012.12	–
313.15 K, x1 = 1	1049.39	–
313.21 K, x1 = 0.3004	–	1116.2
313.21 K, x1 = 0.6998	–	1201.4
313.21 K, x1 = 0.8957	–	1244
313.22 K, x1 = 0.4999	–	1157.3
313.23 K, x1 = 1	–	1267.4
313.25 K, x1 = 0.1014	–	1082.9
313.26 K, x1 = 0.4	–	1136.5
313.26 K, x1 = 0.8001	–	1223.6
313.28 K, x1 = 0.1999	–	1098
313.28 K, x1 = 0.6004	–	1179.5
